Measured values from the NIST ThermoML archive (doi:10.1016/j.jct.2006.01.012).

Experiment: xn = mol fraction of the nth substance listed
Conditions: Liquid; for viscosity: Capillary tube (Ostwald / Ubbelohde) method; for mass density: isochoric method

CCCCCCCC [octane] + CCCCCCC
Conditions	mass density [kg/m3]	viscosity [mPa·s]
373.19 K, 5000 kPa, x2 = 0.7906	–	0.217
373.19 K, 10000 kPa, x2 = 0.7906	–	0.23
373.51 K, 5000 kPa, x2 = 0.2808	–	0.241
373.51 K, 10000 kPa, x2 = 0.2808	–	0.255
373.97 K, 5000 kPa, x2 = 0.5427	–	0.227
373.97 K, 10000 kPa, x2 = 0.5427	–	0.24
374.79 K, 3256 kPa, x2 = 0.2808	634.7	–
374.79 K, 8081 kPa, x2 = 0.2808	641.5	–
374.79 K, 9316 kPa, x2 = 0.2808	643.1	–
380.43 K, 3110 kPa, x2 = 0.5427	623.5	–
380.43 K, 5712 kPa, x2 = 0.5427	628.4	–
380.43 K, 8743 kPa, x2 = 0.5427	633.1	–
380.43 K, 10230 kPa, x2 = 0.5427	635.1	–
382.99 K, 5000 kPa, x2 = 0.2808	–	0.223
382.99 K, 10000 kPa, x2 = 0.2808	–	0.237
383.18 K, 5000 kPa, x2 = 0.5427	–	0.212
383.18 K, 10000 kPa, x2 = 0.5427	–	0.224
384.55 K, 5000 kPa, x2 = 0.7906	–	0.198
384.55 K, 10000 kPa, x2 = 0.7906	–	0.211
386.91 K, 3743 kPa, x2 = 0.7906	612.4	–
386.91 K, 5902 kPa, x2 = 0.7906	616.6	–
386.91 K, 8793 kPa, x2 = 0.7906	621.6	–
386.91 K, 10710 kPa, x2 = 0.7906	624.7	–
393.49 K, 5000 kPa, x2 = 0.2808	–	0.206
393.49 K, 10000 kPa, x2 = 0.2808	–	0.22
394.51 K, 5000 kPa, x2 = 0.5427	–	0.195
394.51 K, 10000 kPa, x2 = 0.5427	–	0.206
395.52 K, 5000 kPa, x2 = 0.7906	–	0.183
395.52 K, 10000 kPa, x2 = 0.7906	–	0.195
401.28 K, 4100 kPa, x2 = 0.7906	601.1	–
401.28 K, 6833 kPa, x2 = 0.7906	606.2	–
401.28 K, 9204 kPa, x2 = 0.7906	610.3	–
401.28 K, 10510 kPa, x2 = 0.7906	612.5	–
401.4 K, 4751 kPa, x2 = 0.2808	614.2	–
401.4 K, 7120 kPa, x2 = 0.2808	618	–
401.4 K, 9310 kPa, x2 = 0.2808	621.7	–
403.23 K, 5000 kPa, x2 = 0.5427	–	0.183
403.23 K, 10000 kPa, x2 = 0.5427	–	0.193
407.72 K, 5000 kPa, x2 = 0.7906	–	0.167
407.72 K, 10000 kPa, x2 = 0.7906	–	0.18
409.59 K, 3334 kPa, x2 = 0.5427	598	–
409.59 K, 7257 kPa, x2 = 0.5427	606.1	–
409.59 K, 9316 kPa, x2 = 0.5427	609.6	–
413.6 K, 5000 kPa, x2 = 0.2808	–	0.178
413.6 K, 10000 kPa, x2 = 0.2808	–	0.191
415.96 K, 5000 kPa, x2 = 0.5427	–	0.167
415.96 K, 10000 kPa, x2 = 0.5427	–	0.177
423.23 K, 3334 kPa, x2 = 0.7906	578.1	–
423.23 K, 7433 kPa, x2 = 0.7906	587.6	–
423.23 K, 9708 kPa, x2 = 0.7906	592.4	–
424.45 K, 5000 kPa, x2 = 0.7906	–	0.149
424.45 K, 10000 kPa, x2 = 0.7906	–	0.16
424.48 K, 4903 kPa, x2 = 0.5427	588.7	–
424.48 K, 7108 kPa, x2 = 0.5427	592.8	–
424.48 K, 9298 kPa, x2 = 0.5427	597.1	–
424.55 K, 5000 kPa, x2 = 0.5427	–	0.158
424.55 K, 10000 kPa, x2 = 0.5427	–	0.167
429.34 K, 3511 kPa, x2 = 0.2808	585.6	–
429.34 K, 8237 kPa, x2 = 0.2808	595.9	–
429.34 K, 9630 kPa, x2 = 0.2808	598.7	–
432.62 K, 5000 kPa, x2 = 0.2808	–	0.156
432.62 K, 10000 kPa, x2 = 0.2808	–	0.168
433.62 K, 5000 kPa, x2 = 0.5427	–	0.148
433.62 K, 10000 kPa, x2 = 0.5427	–	0.158
435.62 K, 5000 kPa, x2 = 0.7906	–	0.138
435.62 K, 10000 kPa, x2 = 0.7906	–	0.149
447.3 K, 4808 kPa, x2 = 0.5427	566	–
447.3 K, 6304 kPa, x2 = 0.5427	569.6	–
447.3 K, 9463 kPa, x2 = 0.5427	576.6	–
451.28 K, 3900 kPa, x2 = 0.2808	565.6	–
451.28 K, 5302 kPa, x2 = 0.2808	569	–
451.28 K, 8131 kPa, x2 = 0.2808	576	–
451.28 K, 9621 kPa, x2 = 0.2808	579.7	–
452.73 K, 5000 kPa, x2 = 0.5427	–	0.129
452.73 K, 10000 kPa, x2 = 0.5427	–	0.14
455.3 K, 5000 kPa, x2 = 0.7906	–	0.12
455.3 K, 10000 kPa, x2 = 0.7906	–	0.132
455.63 K, 5000 kPa, x2 = 0.2808	–	0.133
455.63 K, 10000 kPa, x2 = 0.2808	–	0.145
463.18 K, 5000 kPa, x2 = 0.5427	–	0.12
463.18 K, 10000 kPa, x2 = 0.5427	–	0.131
466.55 K, 4570 kPa, x2 = 0.7906	535.1	–
466.55 K, 7593 kPa, x2 = 0.7906	546.3	–
466.55 K, 9885 kPa, x2 = 0.7906	553.4	–
466.78 K, 3177 kPa, x2 = 0.5427	538.3	–
466.78 K, 8649 kPa, x2 = 0.5427	556.8	–
466.78 K, 9963 kPa, x2 = 0.5427	560.6	–
472.52 K, 5000 kPa, x2 = 0.7906	–	0.107
472.52 K, 10000 kPa, x2 = 0.7906	–	0.118
473.1 K, 5000 kPa, x2 = 0.5427	–	0.112
473.1 K, 10000 kPa, x2 = 0.5427	–	0.123
473.46 K, 5000 kPa, x2 = 0.2808	–	0.118
473.46 K, 10000 kPa, x2 = 0.2808	–	0.13
475.85 K, 4354 kPa, x2 = 0.2808	539.5	–
475.85 K, 8492 kPa, x2 = 0.2808	553.8	–
475.85 K, 10120 kPa, x2 = 0.2808	558.1	–
483.92 K, 4703 kPa, x2 = 0.5427	524.2	–
483.92 K, 7131 kPa, x2 = 0.5427	533.5	–
483.92 K, 9423 kPa, x2 = 0.5427	541.6	–
494.74 K, 4250 kPa, x2 = 0.2808	515.8	–
494.74 K, 6032 kPa, x2 = 0.2808	524.3	–
494.74 K, 8734 kPa, x2 = 0.2808	535.5	–
494.74 K, 9220 kPa, x2 = 0.2808	537.5	–
505.34 K, 5217 kPa, x2 = 0.2808	507.7	–
505.34 K, 8904 kPa, x2 = 0.2808	525.4	–
505.34 K, 9807 kPa, x2 = 0.2808	528.4	–
506 K, 5099 kPa, x2 = 0.7906	487.7	–
506 K, 6982 kPa, x2 = 0.7906	499.4	–
506 K, 8492 kPa, x2 = 0.7906	507.2	–
506 K, 9669 kPa, x2 = 0.7906	512.6	–
518.04 K, 4982 kPa, x2 = 0.5427	480.1	–
518.04 K, 7512 kPa, x2 = 0.5427	496.2	–
518.04 K, 8983 kPa, x2 = 0.5427	504.3	–
525.5 K, 4771 kPa, x2 = 0.2808	475.8	–
525.5 K, 5323 kPa, x2 = 0.2808	480.4	–
525.5 K, 7331 kPa, x2 = 0.2808	494.9	–
525.5 K, 9533 kPa, x2 = 0.2808	506.5	–
536.57 K, 5021 kPa, x2 = 0.5427	449.5	–
536.57 K, 6931 kPa, x2 = 0.5427	468.1	–
536.57 K, 9621 kPa, x2 = 0.5427	486.1	–
549.34 K, 5394 kPa, x2 = 0.5427	431.7	–
549.34 K, 6766 kPa, x2 = 0.5427	449.2	–
549.34 K, 8689 kPa, x2 = 0.5427	464.6	–
549.34 K, 9708 kPa, x2 = 0.5427	471.9	–
555.9 K, 4982 kPa, x2 = 0.7906	394.1	–
555.9 K, 6198 kPa, x2 = 0.7906	416.1	–
555.9 K, 8649 kPa, x2 = 0.7906	445.5	–
555.9 K, 10240 kPa, x2 = 0.7906	458.1	–
557.23 K, 5296 kPa, x2 = 0.2808	430.4	–
557.23 K, 8238 kPa, x2 = 0.2808	461.5	–
557.23 K, 9885 kPa, x2 = 0.2808	473.3	–
557.23 K, 10790 kPa, x2 = 0.2808	479	–
